Laboratory results as given in ChEMBL document CHEMBL5376002, “A Hybrid Antimicrobial Peptide Targeting Staphylococcus aureus with a Dual Function of Inhibiting Quorum Sensing Signaling and an Antibacterial Effect” (J Med Chem, 2023).
pKd: −log10 of the molar value. Converted amounts (≈) assume the structure as drawn. The source made the active and inactive calls. The calls are words filed in the database; no cut-off is given here. Square brackets hold non-standard residues; d marks the D form. Peptide text beside a SMILES is read from it. Dab = NCC[C@H](N)C(=O)O

Tests used:
Staphylococcus aureus [1] = assay: Bactericidal activity against Staphylococcus aureus ATCC 43300 assessed as inhibition of bacterial growth incubated for 18 to 24 hrs; assay type: functional; conditions: time 18-24 hrs
[2] = Binding affinity to AgrC-I extra-loop-III (unknown origin) assessed as dissociation constant incubated for 10 mins by isothermal titration calorimetry analysis
Streptococcus mutans [3] = assay: Antibacterial activity against Streptococcus mutans UA159 assessed as inhibition of bacterial growth incubated for 18 to 24 hrs; assay type: functional; conditions: time 18-24 hrs
[4] = Binding affinity to AgrC-I extra-loop-II (unknown origin) assessed as change in enthalpy incubated for 10 mins by isothermal titration calorimetry analysis
Homo sapiens [5] = species on record: Homo sapiens; assay: Binding affinity to AgrC-I extra-loop-III (unknown origin) assessed as change in entropy incubated for 10 mins by isothermal titration calorimetry analysis
Staphylococcus aureus [6] = assay: Antibacterial activity against Staphylococcus aureus ATCC 12600 assessed as inhibition of bacterial growth incubated for 18 to 24 hrs; assay type: functional; conditions: time 18-24 hrs
[7] = tested on: Staphylococcus epidermidis; assay: Bactericidal activity against Staphylococcus epidermidis ATCC 12228 assessed as inhibition of bacterial growth incubated for 18 to 24 hrs; assay type: functional; conditions: time 18-24 hrs
Homo sapiens [8] = species on record: Homo sapiens; assay: Binding affinity to AgrC-I extra-loop-II (unknown origin) assessed as change in entropy incubated for 10 mins by isothermal titration calorimetry analysis
Staphylococcus aureus [9] = assay: Bactericidal activity against Staphylococcus aureus ATCC 12600 assessed as inhibition of bacterial growth incubated for 18 to 24 hrs; assay type: functional; conditions: time 18-24 hrs
Staphylococcus aureus [10] = assay: Bactericidal activity against Staphylococcus aureus ATCC 6538p assessed as inhibition of bacterial growth incubated for 18 to 24 hrs; assay type: functional; conditions: time 18-24 hrs
Staphylococcus aureus [11] = assay: Antibacterial activity against Staphylococcus aureus ATCC 6538p assessed as inhibition of bacterial growth incubated for 18 to 24 hrs; assay type: functional; conditions: time 18-24 hrs
[12] = tested on: Staphylococcus epidermidis; assay: Antibacterial activity against Staphylococcus epidermidis ATCC 12228 assessed as inhibition of bacterial growth incubated for 18 to 24 hrs; assay type: functional; conditions: time 18-24 hrs
[13] = Binding affinity to AgrC-I extra-loop-II (unknown origin) assessed as dissociation constant incubated for 10 mins by isothermal titration calorimetry analysis
Streptococcus pneumoniae [14] = assay: Bactericidal activity against Streptococcus pneumoniae ATCC 49619 assessed as inhibition of bacterial growth incubated for 18 to 24 hrs; assay type: functional; conditions: time 18-24 hrs
Staphylococcus aureus [15] = assay: Inhibition of biofilm formation in Staphylococcus aureus at 0.78 to 1.56 uM incubated for 24 hrs by crystal violet staining based analysis; assay type: functional, organism-based; conditions: dose 0.78-1.56 µM
Homo sapiens [16] = species on record: Homo sapiens; assay: Binding affinity to AgrC-I extra-loop-III (unknown origin) assessed as gibbs free energy change incubated for 10 mins by isothermal titration calorimetry analysis
[17] = tested on: Staphylococcus saprophyticus; assay: Antibacterial activity against Staphylococcus saprophyticus ATCC BAA-750 assessed as inhibition of bacterial growth incubated for 18 to 24 hrs; assay type: functional; conditions: time 18-24 hrs
Homo sapiens [18] = species on record: Homo sapiens; assay: Binding affinity to AgrC-I extra-loop-II (unknown origin) assessed as gibbs free energy change incubated for 10 mins by isothermal titration calorimetry analysis
Homo sapiens [19] = species on record: Homo sapiens; assay: Binding affinity to AgrC-I extra-loop-I (unknown origin) assessed as change in entropy incubated for 10 mins by isothermal titration calorimetry analysis
[20] = Binding affinity to AgrC-I extra-loop-I (unknown origin) assessed as dissociation constant incubated for 10 mins by isothermal titration calorimetry analysis
Escherichia coli [21] = assay: Antibacterial activity against Escherichia coli ATCC 25922 assessed as inhibition of bacterial growth incubated for 18 to 24 hrs; assay type: functional; conditions: time 18-24 hrs
Streptococcus mutans [22] = assay: Antibacterial activity against Streptococcus mutans ATCC 25175 assessed as inhibition of bacterial growth incubated for 18 to 24 hrs; assay type: functional; conditions: time 18-24 hrs
Homo sapiens [23] = species on record: Homo sapiens; assay: Binding affinity to AgrC-I extra-loop-I (unknown origin) assessed as gibbs free energy change incubated for 10 mins by isothermal titration calorimetry analysis
Escherichia coli [24] = assay: Bactericidal activity against Escherichia coli ATCC 25922 assessed as inhibition of bacterial growth incubated for 18 to 24 hrs; assay type: functional; conditions: time 18-24 hrs
[25] = tested on: Staphylococcus saprophyticus; assay: Bactericidal activity against Staphylococcus saprophyticus ATCC BAA-750 assessed as inhibition of bacterial growth incubated for 18 to 24 hrs; assay type: functional; conditions: time 18-24 hrs
Streptococcus mutans [26] = assay: Bactericidal activity against Streptococcus mutans UA159 assessed as inhibition of bacterial growth incubated for 18 to 24 hrs; assay type: functional; conditions: time 18-24 hrs
[27] = Binding affinity to AgrC-I extra-loop-III (unknown origin) assessed as change in enthalpy incubated for 10 mins by isothermal titration calorimetry analysis
[28] = Binding affinity to AgrC-I extra-loop-I (unknown origin) assessed as change in enthalpy incubated for 10 mins by isothermal titration calorimetry analysis
Staphylococcus aureus [29] = assay: Antibacterial activity against Staphylococcus aureus ATCC 43300 assessed as inhibition of bacterial growth incubated for 18 to 24 hrs; assay type: functional; conditions: time 18-24 hrs
Streptococcus pneumoniae [30] = assay: Antibacterial activity against Streptococcus pneumoniae ATCC 49619 assessed as inhibition of bacterial growth incubated for 18 to 24 hrs; assay type: functional; conditions: time 18-24 hrs
Streptococcus mutans [31] = assay: Bactericidal activity against Streptococcus mutans ATCC 25175 assessed as inhibition of bacterial growth incubated for 18 to 24 hrs; assay type: functional; conditions: time 18-24 hrs
RAW264.7 [32] = assay: Cytotoxicity against mouse RAW264.7 cells assessed as cell viability incubated for 48 hrs by MTT assay; assay type: functional
Cell membrane [33] = assay: Induction of cell membrane damage in Staphylococcus aureus ATCC 6538p assessed as increase in fluorescent intensity incubated for 30 mins by PI staining based flow cytometry assay
Staphylococcus aureus [34] = assay: Antivirulence activity against Staphylococcus aureus assessed as downregulation of psm-alpha expression level at 1 to 100 uM incubated for 24 hrs by qRT-PCR analysis; assay type: functional, organism-based; conditions: dose 1-100 µM
Staphylococcus aureus [35] = assay: Antivirulence activity against Staphylococcus aureus assessed as downregulation of RNAIII expression level at 1 to 100 uM incubated for 24 hrs by qRT-PCR analysis; assay type: functional, organism-based; conditions: dose 1-100 µM
RAW264.7 [36] = assay: Cytotoxicity against mouse RAW264.7 cells assessed as cell viability upto 125 uM incubated for 48 hrs by MTT assay; assay type: functional, cell-based
Cell membrane [37] = assay: Induction of cell membrane damage in Staphylococcus aureus ATCC 6538p assessed as increase in nucleic acid leakage measured up to 30 mins by UV-spectrophotometer analysis; assay type: subcellular
Staphylococcus aureus [38] = assay: Inhibition of biofilm formation in Staphylococcus aureus incubated for 24 hrs by crystal violet staining based microscopic analysis; assay type: functional, organism-based
Staphylococcus aureus [39] = assay: Antivirulence activity against Staphylococcus aureus assessed as downregulation of hla expression level at 1 to 100 uM incubated for 24 hrs by qRT-PCR analysis; assay type: functional, organism-based; conditions: dose 1-100 µM
Erythrocyte = assay: Hemolytic activity in rat RBC assessed as hemolysis measured after 20 hrs; assay type: toxicity, cell-based

Compound: CC[C@H](C)[C@H](N)C(=O)N[C@@H](CC(N)=O)C(=O)N[C@@H](CCN)C(=O)N[C@@H](C)C(=O)N[C@@H](Cc1ccccc1)C(=O)N[C@@H](CC(C)C)C(=O)N[C@@H](CC(C)C)C(=O)NCC(=O)NCC(=O)NCC(=O)N[C@H](C(=O)N[C@@H](CCCCN)C(=O)N[C@@H](CC(N)=O)C(=O)N[C@@H](CC(C)C)C(=O)N[C@@H](Cc1c[nH]c2ccccc12)C(=O)N[C@@H](CCCCN)C(=O)N[C@@H](CCCCN)C(=O)N[C@@H](CCSC)C(=O)N[C@H](C(=O)N[C@@H](CCCCN)C(=O)N[C@@H](CC(C)C)C(=O)N[C@@H](Cc1c[nH]c2ccccc12)C(=O)N[C@@H](Cc1ccc(O)cc1)C(=O)O)[C@@H](C)CC)[C@@H](C)CC (H-IN[Dab]AFLLGGGIKNLWKKMIKLWY-OH)
- MBC (Staphylococcus aureus [1]): 12.5 µM (≈ 33.8 µg/mL)
- pKd [2]: 6.86
- MIC (Streptococcus mutans [3]): 6.25 µM (≈ 16.9 µg/mL)
- deltaH [4]: -15.6 kcal/mol
- -TdeltaS (Homo sapiens [5]): 70.6 kcal/mol
- MIC (Staphylococcus aureus [6]): 3.13 µM (≈ 8.47 µg/mL)
- MBC [7]: 3.13 µM (≈ 8.47 µg/mL)
- -TdeltaS (Homo sapiens [8]): 12.3 kcal/mol
- MBC (Staphylococcus aureus [9]): 6.25 µM (≈ 16.9 µg/mL)
- MBC (Staphylococcus aureus [10]): 6.25 µM (≈ 16.9 µg/mL)
- MIC (Staphylococcus aureus [11]): 3.13 µM (≈ 8.47 µg/mL)
- MIC [12]: 1.56 µM (≈ 4.22 µg/mL)
- pKd [13]: 2.42
- MBC (Streptococcus pneumoniae [14]): 12.5 µM (≈ 33.8 µg/mL)
- inhibition (Staphylococcus aureus [15]): Active
- deltaG (Homo sapiens [16]): -9.36 kcal/mol
- MIC [17]: 3.13 µM (≈ 8.47 µg/mL)
- deltaG (Homo sapiens [18]): -3.31 kcal/mol
- -TdeltaS (Homo sapiens [19]): -20.9 kcal/mol
- pKd [20]: 8.69
- MIC (Escherichia coli [21]): 3.13 µM (≈ 8.47 µg/mL)
- MIC (Streptococcus mutans [22]): 6.25 µM (≈ 16.9 µg/mL)
- deltaG (Homo sapiens [23]): -11.8 kcal/mol
- MBC (Escherichia coli [24]): 6.25 µM (≈ 16.9 µg/mL)
- MBC [25]: 3.13 µM (≈ 8.47 µg/mL)
- MBC (Streptococcus mutans [26]): 12.5 µM (≈ 33.8 µg/mL)
- deltaH [27]: -80 kcal/mol
- deltaH [28]: 9.06 kcal/mol
- MIC (Staphylococcus aureus [29]): 6.25 µM (≈ 16.9 µg/mL)
- MIC (Streptococcus pneumoniae [30]): 6.25 µM (≈ 16.9 µg/mL)
- MBC (Streptococcus mutans [31]): 6.25 µM (≈ 16.9 µg/mL)

Compound: H-IKNLWKKMIKLWY-OH
- MBC (Staphylococcus aureus [1]): 6.25 µM
- pKd [2]: 12.00
- CC50 (RAW264.7 [32]): > 125 µM
- MIC (Streptococcus mutans [3]): 6.25 µM
- deltaH [4]: -44.2 kcal/mol
- -TdeltaS (Homo sapiens [5]): -15.6 kcal/mol
- Activity (Cell membrane [33]): Active
- MIC (Staphylococcus aureus [6]): 3.13 µM
- Activity (Staphylococcus aureus [34]): inactive
- MBC [7]: 3.13 µM
- -TdeltaS (Homo sapiens [8]): 27.9 kcal/mol
- Activity (Staphylococcus aureus [35]): inactive
- Activity (RAW264.7 [36]): inactive
- MBC (Staphylococcus aureus [9]): 6.25 µM
- MBC (Staphylococcus aureus [10]): 3.13 µM
- MIC (Staphylococcus aureus [11]): 3.13 µM
- MIC [12]: 1.56 µM
- pKd [13]: 12.00
- MBC (Streptococcus pneumoniae [14]): 12.5 µM
- deltaG (Homo sapiens [16]): -16.4 kcal/mol
- MIC [17]: 3.13 µM
- deltaG (Homo sapiens [18]): -16.4 kcal/mol
- -TdeltaS (Homo sapiens [19]): -16.3 kcal/mol
- pKd [20]: 12.00
- MIC (Escherichia coli [21]): 3.13 µM
- MIC (Streptococcus mutans [22]): 3.13 µM
- deltaG (Homo sapiens [23]): -16.4 kcal/mol
- MBC (Escherichia coli [24]): 3.13 µM
- MBC [25]: 6.25 µM
- MBC (Streptococcus mutans [26]): 12.5 µM
- Activity (Cell membrane [37]): Active
- deltaH [27]: -0.775 kcal/mol
- deltaH [28]: inactive
- MIC (Staphylococcus aureus [29]): 6.25 µM
- inhibition (Staphylococcus aureus [38]): Active
- Activity (Staphylococcus aureus [39]): inactive
- MIC (Streptococcus pneumoniae [30]): 6.25 µM
- Activity (Erythrocyte): Non-Toxic
- MBC (Streptococcus mutans [31]): 12.5 µM

Compound: H-LGAKAGGGIKNLWKKMIKLWY-OH
- MBC (Staphylococcus aureus [1]): 6.25 µM
- MIC (Streptococcus mutans [3]): 6.25 µM
- MIC (Staphylococcus aureus [6]): 3.13 µM
- Activity (Staphylococcus aureus [34]): inactive
- MBC [7]: 3.13 µM
- Activity (Staphylococcus aureus [35]): inactive
- MBC (Staphylococcus aureus [9]): 3.13 µM
- MBC (Staphylococcus aureus [10]): 3.13 µM
- MIC (Staphylococcus aureus [11]): 3.13 µM
- MIC [12]: 1.56 µM
- MBC (Streptococcus pneumoniae [14]): 25 µM
- inhibition (Staphylococcus aureus [15]): Active
- MIC [17]: 3.13 µM
- MIC (Escherichia coli [21]): 6.25 µM
- MIC (Streptococcus mutans [22]): 3.13 µM
- MBC (Escherichia coli [24]): 12.5 µM
- MBC [25]: 6.25 µM
- MBC (Streptococcus mutans [26]): 6.25 µM
- MIC (Staphylococcus aureus [29]): 6.25 µM
- Activity (Staphylococcus aureus [39]): inactive
- MIC (Streptococcus pneumoniae [30]): 6.25 µM
- Activity (Erythrocyte): Non-Toxic
- MBC (Streptococcus mutans [31]): 3.13 µM
